# Laboratory results: patent US9403873B2, “Peptides targeting receptor activator of nuclear factor-κB (RANK) and their applications” (UNIVERSITE DE NANTES, priority 2011, dated 2016)
# “Also recorded” adds a separate entry of the source. Ends that are not written are not given here.
# Tests used:
# monocytes = assay: Cytotoxicity on monocytes; type: cell-based; settings: 100 μM
# [1] = tested on: ovariectomized C57BL/6 mice; assay: Ovariectomy-induced bone loss in mice, micro-CT of tibiae and L4 vertebrae; type: in vivo, mouse; settings: 35 days
# Excerpt: Eight-week-old ovariectomized (OVX) female C57BL6 and non-ovariectomized control mice were purchased from Janvier (Le Genest Saint Ilsle, France). Mice were housed under pathogen-free conditions at the Experimental Therapy Unit (Faculty of Medicine, University of Nantes, France), and animal care and experimental protocols were approved by the French Ministry of Research and were done in accordance with the institutional guidelines of the French Ethical Committee and under the supervision of authorized investigators. After recovery from OVX surgery for 7 days and acclimation, the mice were randomly divided into treatment groups receiving daily subcutaneous injections of a peptide and a control group receiving daily injections of the vehicle (PBS) only. Non-ovariectomized or sham-operated mice were included in the studies as healthy controls. Three experimental protocols were established. Protocol 1: Ovariectomized mice received daily s.c. injections of 10 mg/kg body weight Pep8 (Pep8, n=8) or vehicle only (OVX, n=8). Non-ovariectomized (NOV, n=8) mice served as normal controls. Protocol 2: Ovariectomized mice were randomly divided into four groups (n=8), receiving daily treatments with pegylated Pep8 (Pep8-NPEG5) at 10 mg/kg or 2.5 mg/kg, or unpegylated Pep8 at a dose of 10 mg/kg/d, or the vehicle only. Sham-operated mice (n=5) served as healthy controls. Protocol 3: Ovariectomized mice receiving daily treatments with pegylated Pep8 (Pep8-NPEG8) at 10 mg/kg or 2.5 mg/kg, as described before, or unpegylated Pep8 at a lower dose of 2.5 mg/kg/d, or the vehicle only. Sham-operated mice (n=8) served as healthy controls.
# During the experimental period, the body weight of the mice was monitored. […] After treatment for five weeks, mice were anesthetized with isoflurane (2%, 1 L/min) and sacrificed by cervical dislocation. Lumbar vertebrae and tibiae were collected for micro-CT analysis and stored at 4° C. in 4% paraformaldehyde until further analysis. Additionally, internal organs (heart, liver, lungs, kidneys, spleen, intestines and thymus) of some mice (n=3 per group) were harvested and stored for toxicity screening.
# Analysis of architectural variables of tibiae and vertebrae of mice was performed using the high-resolution X-ray micro-CT system for small animal imaging SkyScan-1072 (SkyScan, Belgium). After scanning, the image data were transferred to a workstation and the proximal tibiae and the fourth lumbar vertebrae (L4) were rendered for 3-D display and calculation of the structural indices (Parfitt et al. 1987) using the SkyScan analysis system (CT-analyser, CT-volume, SkyScan). For trabecular bone parameters in tibiae, transverse CT slices were obtained in the region of interest in the axial direction from the trabecular bone ca. 0.1 mm below the growth plate to the mid-femur. Contours were defined and drawn close to the cortical bone. The trabecular bone was then removed and analyzed separately. Fifty slices (1 mm) at approximately […] distal to the growth plate of the proximal ends of the tibiae were used for analysis. […] The threshold level for the measurements was set at 55 for the analyses. The analysis of the specimens involved the following bone measurements: bone volume fraction (BV/TV, %), trabecular number (TbN), trabecular thickness (TbTh) and trabecular spacing (TbSp).
# hRANK = biological target: T1, hRANK (Homo sapiens, UniProt Q9Y6Q6); assay: Saturation transfer difference (STD) NMR of Pep8 binding to RANK; settings: Pep8:RANK-Fc 100:1 to 1000:1, phosphate buffer
# T1 construct: For NMR experiments with soluble RANK receptor-Fc (R&D Systems); purchased R&D Systems
# T1 sequence (Q9Y6Q6 30-212 limits assumed): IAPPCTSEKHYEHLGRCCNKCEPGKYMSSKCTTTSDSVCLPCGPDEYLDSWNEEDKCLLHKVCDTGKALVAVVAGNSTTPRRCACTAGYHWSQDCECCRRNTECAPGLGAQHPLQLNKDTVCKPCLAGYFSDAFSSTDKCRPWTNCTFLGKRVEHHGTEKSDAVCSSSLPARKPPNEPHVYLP
# Description: NMR experiments were run at 500.13 MHz for ^1H on a Bruker AVANCE 500 spectrometer with a Linux PC workstation, using standard 5 mm or Shigemi 3 mm tubes with susceptibility matched to solvent ^2H2O/Water sample tubes. The spectra of the polypeptide Pep8 at 0.1, 0.2, 0.4 or 1 mM sample concentrations were recorded in 50 mM sodium phosphate buffer at pH 7.4, prepared in 95% H2O and 5% ^2H2O. Two-dimensional NMR spectra were recorded in the phase-sensitive mode using the States—TPPI method (States et al. 1982). […] The two-dimensional COSY, TOCSY and NOESY spectra were recorded at 280 K. TOCSY spectra were recorded using a MLEV-17 spin-lock sequence (Bax et al. 1985) with a mixing time (τm) of 35 and 70 ms, respectively. 2D NOESY experiments were recorded at a mixing time (τm) of 100, 200 or 500 ms. The heteronuclear spectra ^1H-^13C HSQC were recorded at 280 K in the same conditions. […] Transferred nuclear Overhauser effect (TRNOESY) spectra of Pep8 with RANK receptor-Fc protein were recorded using a mixing time (Tm) of 100, 200 or 500 ms.
# ^1D ^1H STD NMR spectra of the polypeptide—protein mixtures were recorded at 500 MHz with 4K scans and selective saturation of protein resonances as described previously (Pons et al. 2011). […]
# [2] = 10 mg/kg/day s.c., vs vehicle-treated OVX mice
sequence,measurement,setting,value
"NVLKLCSGE [Pep8, NVLKLCSGE]",cytotoxic effect,monocytes,no cytotoxic effect
same,"protection against OVX-induced trabecular bone loss (μCT, tibiae)",[1]; 2.5 mg/kg/d s.c.,less efficient
same,"trabecular BV/TV and TbN, tibiae","[1]; 2.5 mg/kg/d, vs vehicle","only slightly, but not significantly increasing"
same,protection against OVX-induced trabecular bone loss (μCT),[1]; 10 mg/kg/d s.c.,prevented the loss of trabecular bone; also recorded: overall increase in trabecular bone density
same,"increase of TbN, proximal tibia",[1]; [2],71%
same,"increase of TbTh, proximal tibia",[1]; [2],14%
same,"increase of trabecular BV/TV, proximal tibia",[1]; [2],93%
same,"TbS, proximal tibia","[1]; 10 mg/kg/day s.c., vs vehicle-treated mice",decline
same,"TbN, lumbar vertebrae",[1]; 10 mg/kg/day,increased
same,"TbS, lumbar vertebrae",[1]; 10 mg/kg/day,reduced
same,"TbTh, lumbar vertebrae","[1]; 10 mg/kg/day, vs OVX control mice","slightly, but not statistically significantly increased"
same,vertebral trabecular BV/TV,"[1]; lumbar vertebrae, 10 mg/kg/day",lower in OVX than Pep8-treated mice
same,STD relative transfer ratio of residues C6S7,hRANK,60%
same,STD saturation received by residues L3K4L5,hRANK,100%
